Source: US9499553B2 (CHUGAI SEIYAKU KABUSHIKI KAISHA, priority 2013, dated 2016)

Target: T1, human NaPi-IIb (Homo sapiens, UniProt O95436)
T1 construct: expressed in transfected cells
T1 sequence (O95436 1-690): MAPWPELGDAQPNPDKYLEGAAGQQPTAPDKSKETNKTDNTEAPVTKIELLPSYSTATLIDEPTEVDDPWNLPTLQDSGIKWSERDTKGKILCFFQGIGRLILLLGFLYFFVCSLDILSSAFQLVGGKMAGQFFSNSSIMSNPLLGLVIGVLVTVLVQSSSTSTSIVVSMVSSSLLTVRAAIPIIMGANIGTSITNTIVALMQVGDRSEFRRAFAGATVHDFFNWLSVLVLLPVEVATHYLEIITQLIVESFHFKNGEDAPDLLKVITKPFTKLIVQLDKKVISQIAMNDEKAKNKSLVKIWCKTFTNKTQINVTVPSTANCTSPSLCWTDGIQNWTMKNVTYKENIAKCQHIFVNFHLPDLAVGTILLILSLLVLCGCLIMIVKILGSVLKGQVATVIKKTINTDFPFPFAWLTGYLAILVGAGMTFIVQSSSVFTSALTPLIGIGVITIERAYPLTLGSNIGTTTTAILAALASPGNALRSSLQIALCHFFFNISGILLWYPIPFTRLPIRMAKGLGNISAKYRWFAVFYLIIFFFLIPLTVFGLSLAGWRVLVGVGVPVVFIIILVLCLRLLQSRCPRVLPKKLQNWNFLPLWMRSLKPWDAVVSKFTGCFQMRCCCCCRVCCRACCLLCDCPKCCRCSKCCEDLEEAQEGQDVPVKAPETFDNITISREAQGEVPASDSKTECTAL
Test: Inhibitory effect on 33PO4 uptake into human NaPi-IIb-expressing CHO cells
Type: cell-based
Conditions: read-out: IC50
Procedure, shortened: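 Stable human NaPi-IIb CHO line (G418-selected), plated and cultured overnight; ³³PO4 added in buffer A and uptake run at room temperature. Cells washed with ice-cold buffer A, then uptake counted by liquid scintillation.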

Compound	IC50 [µM]
CN1N(Cc2ccc(OCCCC(=O)O)c(F)c2F)C(=O)C(C(=O)Nc2ccc(C(F)(F)F)cc2-c2cc(C(F)(F)F)ncn2)=C(O)C12CCCC2 [Example 332, 4-[2,3-Difluoro-4-[[10-hydroxy-6-methyl-8-oxo-9-[[4-(trifluoromethyl)-2-[6-(trifluoromethyl)pyrimidin-4-yl]phenyl]carbamoyl]-6,7-diazaspiro[4.5]dec-9-en-7-yl]methyl]phenoxy]butanoate]	23.9
CN1N(Cc2ccc(OCCCCCC(=O)O)c(F)c2F)C(=O)C(C(=O)Nc2ccc(C(F)(F)F)cc2-c2cc(C(F)(F)F)ncn2)=C(O)C12CCCC2 [Example 334]	10.3
CN1N(Cc2ccc(OCCCCCCC(=O)O)c(F)c2F)C(=O)C(C(=O)Nc2ccc(C(F)(F)F)cc2-c2cc(C(F)(F)F)ncn2)=C(O)C12CCCC2 [Example 335]	8.7
CN1N(Cc2ccc(OCC(=O)N3CCOCC3)c(F)c2F)C(=O)C(C(=O)Nc2ccc(C(F)(F)F)cc2-c2cc(C(F)(F)F)ncn2)=C(O)C12CCC2 [Example 336, 8-[[2,3-Difluoro-4-(2-morpholin-2-oxo-ethoxy)phenyl]methyl]-5-hydroxy-9-methyl-7-oxo-N-[4-(trifluoromethyl)-2-[6-(trifluoromethyl)pyrimidin-4-yl]phenyl]-8,9-diazaspiro[3.5]non-5-ene-6-carboxamide]	19.7
CN1N(Cc2ccc(OCCN3CCOC(=O)C3)c(F)c2F)C(=O)C(C(=O)Nc2ccc(C(F)(F)F)cc2-c2cc(C(F)(F)F)ncn2)=C(O)C12CCC2 [Example 337, 8-[[2,3-Difluoro-4-[2-(2-oxomorpholin-4-yl)ethoxy]phenyl]methyl]-5-hydroxy-9-methyl-7-oxo-N-[4-(trifluoromethyl)-2-[6-(trifluoromethyl)pyrimidin-4-yl]phenyl]-8,9-diazaspiro[3.5]non-5-ene-6-carboxamide]	17
CN(CCOc1ccc(CN2C(=O)C(C(=O)Nc3ccc(C(F)(F)F)cc3-c3cc(C(F)(F)F)ncn3)=C(O)C3(CCC3)N2C)c(F)c1F)C1CCOC1 (centres unmarked) [Example 338, 6-[[2,3-Difluoro-4-[2-[methyl(oxolan-3-yl)amino]ethoxy]phenyl]methyl]-9-hydroxy-5-methyl-7-oxo-N-[4-(trifluoromethyl)-2-[6-(trifluoromethyl)pyrimidin-4-yl]phenyl]-5,6-diazaspiro[3.5]non-8-ene-8-carboxamide]	13.4
CN1N(Cc2ccc(OCCN3[C@@H]4COC[C@H]3C4)c(F)c2F)C(=O)C(C(=O)Nc2ccc(C(F)(F)F)cc2-c2cc(C(F)(F)F)ncn2)=C(O)C12CCC2 [Example 339]	19.1
CN1N(Cc2ccc(OCCN3C4CCC3COC4)c(F)c2F)C(=O)C(C(=O)Nc2ccc(C(F)(F)F)cc2-c2cc(C(F)(F)F)ncn2)=C(O)C12CCC2 [Example 340]	10
CN1N(Cc2ccc(OCCN3CCOCC3(C)C)c(F)c2F)C(=O)C(C(=O)Nc2ccc(C(F)(F)F)cc2-c2cc(C(F)(F)F)ncn2)=C(O)C12CCC2 [Example 341]	7.6
CN1N(Cc2ccc(OCCN3CCOC(C)(C)C3)c(F)c2F)C(=O)C(C(=O)Nc2ccc(C(F)(F)F)cc2-c2cc(C(F)(F)F)ncn2)=C(O)C12CCC2 [Example 342]	8.8
C[C@H]1COC[C@H](C)N1CCOc1ccc(CN2C(=O)C(C(=O)Nc3ccc(C(F)(F)F)cc3-c3cc(C(F)(F)F)ncn3)=C(O)C3(CCC3)N2C)c(F)c1F [Example 343]	21
C[C@@H]1COC[C@H](C)N1CCOc1ccc(CN2C(=O)C(C(=O)Nc3ccc(C(F)(F)F)cc3-c3cc(C(F)(F)F)ncn3)=C(O)C3(CCC3)N2C)c(F)c1F [Example 344]	13.7
COC(=O)CN(C)CCOc1ccc(CN2C(=O)C(C(=O)Nc3ccc(C(F)(F)F)cc3-c3cc(C(F)(F)F)ncn3)=C(O)C3(CCC3)N2C)c(F)c1F [Example 346]	6.9
CN(CCO)CCOc1ccc(CN2C(=O)C(C(=O)Nc3ccc(C(F)(F)F)cc3-c3cc(C(F)(F)F)ncn3)=C(O)C3(CCC3)N2C)c(F)c1F [Example 347]	25.2
